Laboratory results: patent US20260109712A1, “RIFAMYCINS FOR NONTUBERCULOUS MYCOBACTERIA” (priority 2022, published 2026)
≈ marks a conversion by molar mass, not a printed value. Read-outs that look alike come from different tables or passages of the source.

Tests used:
[1] = system: M. abscessus subsp. abscessus K21; assay: MIC assay, clinical isolate K21; type: cell-based, Mycobacterium abscessus; conditions: 90% inhibition of bacterial growth
THP-1 = assay: Fold-killing in THP-1; type: cell-based; conditions: expressed in log-10 scale
Mycobacterium abscessus = assay: MIC against Mycobacterium abscessus (strain not given); type: cell-based
CYP3A4 = conditions: human
Method: The threshold cycle (CT) was measured for each isoform cDNA by real time qRT-PCR. The mRNA level of each isoform was assessed by the relative quantifiation with reference gene (GAPDH) as the normalizer method. The normalized fold induction was calculated by 2^−ΔΔCT method, in which 0.1% DMSO was used as the reference (vehicle control). The induction potential of each test compound was analyzed by comparing its fold induction to a pre-determined cutoff value for each lot of hepatocytes. The hepatocytes lots used in this study were validated using 10 known inducers and 5 known non-inducers for each isozyme. A cutoff value is determined based on the validation study for each hepatocytes lot.

| SMILES | Mab K21 MIC [1] [µM] | Fold-killing in THP-1 (THP-1) | MIC (Mycobacterium abscessus; Mycobacteroides abscessus, 72 h, Table 22, read-out: MICMab) [µM] | MIC (Mycobacterium abscessus; Mycobacteroides abscessus, Table 13, read-out: Mab MIC) [µM] | MIC (Mycobacterium abscessus; Mycobacteroides abscessus, against Mycobacterium abscessus, Table 19, read-out: MIC) [µM] | MIC (Mycobacterium abscessus; against Mycobacterium abscessus, Table 20, read-out: MIC) [µM] | CYP3A4 gene fold-induction at 10 μM (CYP3A4) |
| --- | --- | --- | --- | --- | --- | --- | --- |
| CO[C@H]1/C=C/O[C@@]2(C)Oc3c(C)c(O)c4c(c3C2=O)C2=NC3(CCN(CC(C)C)CC3)NC2=C(NC(=O)/C(C)=C/C=C/[C@H](C)[C@H](O)[C@@H](C)[C@@H](O)[C@@H](C)[C@H](OC(=O)c2cccnc2)[C@@H]1C)C4=O [5m, 25-O-(3-pyridinecarbonyl)-25-O-desacetyrifabutin] | 0.033 | – | – | – | – | – | – |
| CO[C@H]1/C=C/O[C@@]2(C)Oc3c(C)c(O)c4c(c3C2=O)C2=NC3(CCN(CC(C)C)CC3)NC2=C(NC(=O)/C(C)=C\C=C\[C@H](C)[C@H](O)[C@@H](C)[C@@H](O)[C@@H](C)[C@H](OC(C)=O)[C@@H]1C)C4=O [rifabutin, reference compound] | – | 2.3 | 1.15 (≈ 0.974 µg/mL) | 1.1 (≈ 0.932 µg/mL) | 1.1 (≈ 0.932 µg/mL) | 1.1 (≈ 0.932 µg/mL) | 40.0 |
